Test system: donor heart graft (rejection)
Assay: Rat heart transplantation (graft survival)
Assay type: in vivo, rat (Male Lewis and BN)
Description: A. Rat Heart Transplantation
The strain combination used: Male Lewis (RT^1 haplotype) and BN (RT^1 haplotype). The animals are anaesthetised using inhalational isofluorane. […] The aorta is ligated and divided distal to the first branch and the brachiocephalic trunk is divided at the first bifurcation. The left pulmonary artery is ligated and divided and the right side divided but left open. All other vessels are dissected free, ligated and divided and the donor heart is removed into iced saline.
The recipient is prepared by dissection and cross-clamping of the infra-renal abdominal aorta and vena cava. The graft is implanted with end-to-side anastomoses, using 10/0 monofilament suture, between the donor brachiocephalic trunk and the recipient aorta and the donor right pulmonary artery to the recipient vena cava. The clamps are removed, the graft tethered retroabdominally, the abdominal contents washed with warm saline and the animal is closed and allowed to recover under a heating lamp. Graft survival is monitored by daily palpation of the beating donor heart through the abdominal wall. Rejection is considered to be complete when heart beat stops.

Row | SMILES | EC50 (672 h, rat heart transplantation, CP-690,550 in mono-citrate salt form, concentration in blood, read-out: EC50 (drug concentration in blood at which 50% of the animals maintain their graft for >28 days)) | graft survival (rat heart transplantation, Compound A in the acetate form at 1 to 30 mg/kg/day and CP-690,550 mono-citrate at an EC50 of 60 ng/ml) | graft survival (rat, in vivo)
1 | C[C@@H]1CCN(C(=O)CC#N)C[C@@H]1N(C)c1ncnc2[nH]ccc12 [CP-690,550, 3-{(3R,4R)-4-methyl-3-[methyl-(7H-pyrrolo[2,3-d]pyrimidin-4-yl)-amino]-piperidin-1-yl}-3-oxo-propionitrile] | 0.06 µg/mL | significantly increase the graft survival | 
2 | CN1CCN(c2nc(C3=C(c4c[nH]c5ccccc45)C(=O)NC3=O)c3ccccc3n2)CC1 [Compound A, 3-(1.H.-indol-3-yl)-4-[2-(4-methyl-piperazin-1-yl)-quinazolin-4-yl]-pyrrole-2,5-dione] |  |  | significantly increase the graft survival
